Results: patent publication US20130071340A1, “POLYOL PARTIAL ESTERS FOR USE IN COSMETICS” (priority 2010, published 2013)
Like-named read-outs stand apart in the source and are kept apart here.

Experiments:
[1] = UV filter solubility in the emollients; format: physicochemical; details: maximum soluble amount of ethylhexyl triazone (Uvinul T 150) in the emollient at 22 °C
From the text: This operation was repeated until the maximum soluble amount of the UV filter was exceeded. At higher concentrations, often a longer stirring time of several hours is necessary for complete dissolution. When in this way the maximum concentration had been determined approximately, for fine determination the concentration range was repeated around this maximum concentration with smaller initial weighed amounts of the UV filter.

Row | Solubility in wt % in the test emollients (test emollient: Isohexadecane) | Solubility in wt % in the test emollients (test emollient: Mineral oil) [% wt %] | Solubility in wt % in the test emollients (test emollient: Octyldodecanol) | Solubility in wt % in the test emollients (test emollient: Oleyl erucate) [% wt %] | UV filter solubility: Ethylhexyl triazone [1] [%] | Compound
1 | at 75% solid, | <5 | at 75% solid, | <50 | – | CCCCCCCC(=O)OCC(O)CO (centres unmarked) [Glyceryl monocaprylate]
2 | – | – | – | – | 7.0 | PPG-15 stearyl ether
